Like-named read-outs stand apart in the source and are kept apart here.
Columns and labels:
[1] = target: T1, human progesterone receptor A form (PR-A) (Homo sapiens, UniProt P06401); assay: PR binding assay, baculovirus extract, [3H] progesterone
T1 sequence (P06401 1-769 isoform P06401-2): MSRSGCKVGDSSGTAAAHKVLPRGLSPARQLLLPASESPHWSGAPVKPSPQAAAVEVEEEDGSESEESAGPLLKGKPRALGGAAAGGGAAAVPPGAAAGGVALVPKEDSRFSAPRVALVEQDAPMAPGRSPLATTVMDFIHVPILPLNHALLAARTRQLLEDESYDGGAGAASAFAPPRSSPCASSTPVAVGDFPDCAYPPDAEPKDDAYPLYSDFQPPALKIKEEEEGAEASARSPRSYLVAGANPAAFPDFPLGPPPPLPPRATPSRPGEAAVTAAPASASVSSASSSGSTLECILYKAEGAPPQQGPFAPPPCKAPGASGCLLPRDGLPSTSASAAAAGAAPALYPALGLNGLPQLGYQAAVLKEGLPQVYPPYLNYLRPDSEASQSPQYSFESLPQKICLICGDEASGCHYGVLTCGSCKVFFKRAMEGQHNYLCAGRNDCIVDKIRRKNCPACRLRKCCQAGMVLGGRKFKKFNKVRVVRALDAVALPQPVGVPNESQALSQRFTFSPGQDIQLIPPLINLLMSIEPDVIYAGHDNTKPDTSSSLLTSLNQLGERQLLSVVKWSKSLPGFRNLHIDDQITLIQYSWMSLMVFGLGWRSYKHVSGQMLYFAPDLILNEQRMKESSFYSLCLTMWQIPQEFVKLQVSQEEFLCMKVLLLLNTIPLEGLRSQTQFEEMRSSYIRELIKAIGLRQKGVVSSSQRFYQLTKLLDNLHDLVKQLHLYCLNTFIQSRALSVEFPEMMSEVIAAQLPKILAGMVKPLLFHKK

[2] = target: T2, human PR-B (Homo sapiens, UniProt P06401); assay: Co-transfection assay, PR agonist and antagonist activity, CV-1 cells; type: cell-based; settings: for IC50: read-out: PR Antagonist CV-1 Cells Potency;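 on all read-outs here: luciferase reporter driven by a hormone response element, co-transfected with human PR-B into CV-1 monkey kidney cells, agonists raise and antagonists lower the reporter signal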
T2 construct: expressed in transfected cells; host or cells: CV-1 cells (African green monkey kidney fibroblasts), transient transfection
T2 sequence (P06401 1-933): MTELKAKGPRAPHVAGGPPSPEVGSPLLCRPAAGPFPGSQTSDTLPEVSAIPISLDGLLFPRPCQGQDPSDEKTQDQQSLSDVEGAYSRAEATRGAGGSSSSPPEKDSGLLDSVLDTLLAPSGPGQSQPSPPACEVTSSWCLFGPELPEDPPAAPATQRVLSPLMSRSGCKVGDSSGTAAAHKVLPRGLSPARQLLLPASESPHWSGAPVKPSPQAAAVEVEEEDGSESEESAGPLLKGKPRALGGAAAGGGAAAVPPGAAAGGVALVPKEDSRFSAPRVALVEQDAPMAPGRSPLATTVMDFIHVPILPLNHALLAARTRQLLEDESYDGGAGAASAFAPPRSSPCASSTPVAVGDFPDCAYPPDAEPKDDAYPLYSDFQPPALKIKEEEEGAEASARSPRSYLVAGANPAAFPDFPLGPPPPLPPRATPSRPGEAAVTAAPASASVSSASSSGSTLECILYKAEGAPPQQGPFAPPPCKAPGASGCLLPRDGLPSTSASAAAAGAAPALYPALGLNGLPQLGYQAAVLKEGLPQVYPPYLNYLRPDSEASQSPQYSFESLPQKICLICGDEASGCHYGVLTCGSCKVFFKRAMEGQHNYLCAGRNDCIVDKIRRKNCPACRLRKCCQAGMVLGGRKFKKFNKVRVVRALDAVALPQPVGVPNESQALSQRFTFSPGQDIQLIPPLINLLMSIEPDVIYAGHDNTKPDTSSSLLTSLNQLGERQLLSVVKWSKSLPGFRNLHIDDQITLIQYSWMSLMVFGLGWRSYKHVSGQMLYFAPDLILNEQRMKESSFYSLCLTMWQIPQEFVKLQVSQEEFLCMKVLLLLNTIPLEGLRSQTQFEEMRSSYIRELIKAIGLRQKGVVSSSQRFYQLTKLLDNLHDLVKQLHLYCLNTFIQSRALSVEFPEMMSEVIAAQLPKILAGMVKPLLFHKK

[3] = test system: uterine wet weight in ovariectomized Sprague-Dawely rats; assay: Uterine wet weight assay (PR agonists); type: in vivo, rat; settings: MPA and Compound 210 at 0.3, 1.0 and 3.0 mg/rat; Compound 163 at 3 mg/rat
Text: The effectiveness of selected compounds of the present invention as PR agonists was investigated in the well recognized uterine wet weight assay, as described in G. J. Marcus, “Mitosis in the rat uterus during the estrous cycle, early pregnancy and early pseudopregnancy”, 10 Biol. Reprod., 447 (1974), S. […] J. Obstet. […] I. Dorfman, “Estrogens” (Ch. 2) and “Antiestrogens” (Ch. 3). in Methods in Hormone Research, ed. R. I. Dorfman, Academic Press, New York, New York, pp101-130 (1969), the disclosures of which are herein incorporated by reference. Four to five week old, ovariectomized, Sprague-Dawely rats (Harlan-Sprague-Dawely, Indianapolis, Ind.) were obtained 1 week after surgery and allowed to acclimate for an additional week after shipment. […] Louis, Mo.) a synthetic estrogen agonist, were fully dissolved in purified sesame oil (Croda, Parsippany, N.J.). […] Additional control groups of rats were administered estrone or vehicle (i.e. sesame oil) alone. Animals were sacrificed on the fourth day of the experiment.

[4] = test system: PR, AR, ER, GR and MR; assay: cis-trans or co-transfection assay, steroid receptor panel (cross-reactivity); type: cell-based, human; settings: as seen in the Tables
[5] = target: T3, human androgen receptor (AR) (Homo sapiens, UniProt P10275); assay: Co-transfection assay, AR agonist and antagonist activity, CV-1 cells (pRShAR); type: cell-based; settings: for AR Agonist CV-1 Cells Efficacy (%): relative to DHT; for AR Antagonist CV-1 Cells Efficacy (%): % maximal inhibition
T3 construct: expressed in transfected cells; host or cells: CV-1 cells, transient transfection
T3 sequence (P10275 1-920): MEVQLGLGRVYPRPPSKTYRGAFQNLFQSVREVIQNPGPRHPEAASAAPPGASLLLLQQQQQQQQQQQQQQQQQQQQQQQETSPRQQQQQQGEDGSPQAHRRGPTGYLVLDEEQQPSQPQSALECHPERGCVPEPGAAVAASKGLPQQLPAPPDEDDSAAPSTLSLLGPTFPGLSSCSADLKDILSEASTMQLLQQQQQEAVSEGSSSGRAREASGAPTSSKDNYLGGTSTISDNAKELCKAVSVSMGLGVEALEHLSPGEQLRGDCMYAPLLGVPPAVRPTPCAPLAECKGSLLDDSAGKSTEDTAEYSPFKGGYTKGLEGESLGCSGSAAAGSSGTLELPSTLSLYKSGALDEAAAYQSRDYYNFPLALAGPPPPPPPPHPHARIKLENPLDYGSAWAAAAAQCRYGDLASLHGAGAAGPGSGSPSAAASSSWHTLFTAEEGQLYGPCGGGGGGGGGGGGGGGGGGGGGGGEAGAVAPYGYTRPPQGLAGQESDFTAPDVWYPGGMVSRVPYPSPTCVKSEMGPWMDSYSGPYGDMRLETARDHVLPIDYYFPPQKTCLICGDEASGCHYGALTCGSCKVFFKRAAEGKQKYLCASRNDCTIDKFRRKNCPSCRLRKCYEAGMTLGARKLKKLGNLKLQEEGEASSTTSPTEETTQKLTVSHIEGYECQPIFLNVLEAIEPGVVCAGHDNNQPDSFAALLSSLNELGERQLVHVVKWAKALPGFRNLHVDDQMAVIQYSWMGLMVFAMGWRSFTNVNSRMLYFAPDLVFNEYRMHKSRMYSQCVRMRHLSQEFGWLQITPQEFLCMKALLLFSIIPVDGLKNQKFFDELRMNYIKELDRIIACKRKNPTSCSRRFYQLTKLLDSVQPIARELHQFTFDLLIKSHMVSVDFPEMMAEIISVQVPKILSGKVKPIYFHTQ

[6] = target: T4, human AR (Homo sapiens, UniProt P10275); assay: AR whole cell binding assay, transfected COS-1 cells, 3H-DHT
T4 construct: expressed in transfected cells; host or cells: COS-1 cells, transient transfection
T4 sequence (P10275 1-920): T3 sequence (P10275 1-920)

[7] = agonist mode, EC50, read-out: PR Agonist CV-1 Cells Potency
[8] = read-out: AR Agonist CV-1 Cells Potency, agonist mode, EC50
[9] = antagonist mode, DHT at its EC50
[10] = read-out: AR Antagonist CV-1 Cells Potency, Table 2, antagonist mode, IC50

## CC1=CC(C)(C)Nc2ccc3c(c21)C(c1ccc(Cl)cc1)Oc1ccccc1-3 (racemic) [Compound 163, (R/S)-5-(4-Chlorophenyl)-1,2-dihydro-2,2,4-trimethyl-5H-chromeno[3,4-f]quinoline]
[1]; read-out: PR Binding Ki
  Ki: 1 nM
[2]; [7]
  EC50: 15 nM
[2]
  IC50: 3620 nM
[3]
  effect on uterine wet weight when co-administered with estrone: decreased by approximately half
[4]
  steroid receptor selectivity profile: highly selective PR agonists

## CC1=CC(C)(C)Nc2ccc3c(c21)C(c1cccc(F)c1)Oc1ccccc1-3 (racemic) [Compound 191, (R/S)-5-(3-Fluorophenyl)-1,2-dihydro-2,2,4-trimethyl-5H-chromeno[3,4-f]quinoline]
[1]; read-out: PR Binding Ki
  Ki: 1 nM
[2]; [7]
  EC50: 9 nM
[2]
  IC50: 150 nM
[4]
  steroid receptor selectivity profile: highly selective PR agonists

## CC1CC(C)(C)Nc2cc3oc(=O)cc(-c4ccoc4)c3cc21 (racemic) [Compound 405, (R/S)-5-(3-Furyl)-1,2,3,4-tetrahydro-2,2,4-trimethyl-8-pyranono[5,6-g]quinoline]
[5]
  EC50: > 10 µM
  IC50: 0.077 µM
[5]; Table 2, agonist mode
  AR Agonist CV-1 Cells Efficacy (%): na (na = not active (i.e. efficacy of <20 and potency of >10,000))
[5]; Table 2, antagonist mode
  AR Antagonist CV-1 Cells Efficacy (%): 89%
[5]; agonist mode
  AR Agonist CV-1 Cells Efficacy (%): na (na = not active (i.e. efficacy of <20 and potency of >10,000))
[5]; [8]
  EC50: > 10 µM
[6]
  Ki: 6 nM

## CCC1CCNc2cc3oc(=O)cc(C(F)(F)F)c3cc21 (racemic) [Compound 414, (R/S)-4-Ethyl-1,2,3,4-tetrahydro-6-trifluoromethyl-8-pyranono[5,6-g]quinoline]
[5]
  EC50: 0.001 µM
  IC50: > 10 µM
[5]; Table 2, agonist mode
  AR Agonist CV-1 Cells Efficacy (%): 118%
[5]; Table 2, antagonist mode
  AR Antagonist CV-1 Cells Efficacy (%): na (na = not active (i.e. efficacy of <20 and potency of >10,000))
[5]; [9]
  AR Antagonist CV-1 Cells Efficacy (%): na (na = not active (i.e. efficacy of <20 and potency of >10,000))
[5]; [10]
  IC50: > 10 µM
[6]
  Ki: 0.3 nM

## CC1C(=O)C(C)(C)Nc2cc3[nH]c(=O)cc(C(F)(F)F)c3cc21 (racemic) [Compound 418, (R/S)-1,2,3,4-Tetrahydro-6-trifluoromethyl-2,2,4-trimethyl-8-pyridono[5,6-f]-3-quinolinone]
[5]
  EC50: > 10 µM
  IC50: 0.2 µM
[5]; Table 2, agonist mode
  AR Agonist CV-1 Cells Efficacy (%): na (na = not active (i.e. efficacy of <20 and potency of >10,000))
[5]; Table 2, antagonist mode
  AR Antagonist CV-1 Cells Efficacy (%): 63%
[5]; agonist mode
  AR Agonist CV-1 Cells Efficacy (%): na (na = not active (i.e. efficacy of <20 and potency of >10,000))
[5]; [8]
  EC50: > 10 µM
[6]; competition with 1 nM 3H-DHT, COS-1 whole cells, three hours at 37° C., read-out: AR Binding Ki
  Ki: 1000 nM

## CC1CC(C)(C)Nc2ccc(-c3cc(F)cc(C#N)c3)cc21 (racemic) [Compound 455, (R/S)-6-(3-Cyano-5-Fluorophenyl)-1,2,3,4-Tetrahydro-2,2,4-trimethylquinoline]
[1]; read-out: PR Binding Ki
  Ki: 10 nM
[2]
  PR Agonist CV-1 Cells Efficacy (%): na (na = not active (i.e. efficacy or <20 and potency of >10,000))
  PR Antagonist CV-1 Cells Efficacy (%): 76%
  IC50: 35 nM
[2]; [7]
  EC50: > 10000 nM
[4]
  steroid receptor selectivity profile: highly selective PR antagonists

## CC1=CC(C)(C)Nc2cc3c(cc21)-c1ccc(F)cc1C3 [Compound 124, 8-Fluoro-1,2-dihydro-2,2,4-trimethylindeno[1,2-g]quinoline]
[1]
  Ki: 4 nM
[2]
  EC50: 1600 nM
[2]; agonist mode, percent maximal response relative to reference agonist progesterone
  PR Agonist CV-1 Cells Efficacy (%): 74%
[2]; antagonist mode, progesterone at its EC50, % maximal inhibition
  PR Antagonist CV-1 Cells Efficacy (%): 36%
[2]; antagonist mode, progesterone at its EC50, IC50
  IC50: 10 nM
[4]
  steroid receptor selectivity profile: highly selective PR antagonists

## CC1=CC(C)(C)Nc2cc3oc(=O)cc(C(F)(F)F)c3cc21 [Compound 238, 1,2-Dihydro-2,2,4-trimethyl-6-trifluoromethyl-8-pyranono[5,6-g]quinoline]
[5]
  EC50: 0.01 µM
  IC50: > 10 µM
[5]; Table 2, agonist mode
  AR Agonist CV-1 Cells Efficacy (%): 96%
[5]; Table 2, antagonist mode
  AR Antagonist CV-1 Cells Efficacy (%): na (na = not active (i.e. efficacy of <20 and potency of >10,000))
[5]; [9]
  AR Antagonist CV-1 Cells Efficacy (%): na (na = not active (i.e. efficacy of <20 and potency of >10,000))
[5]; [10]
  IC50: > 10 µM
[6]
  Ki: 44 nM

## CC1=CC(C)(C)Nc2ccc3c(c21)/C(=C/c1ccccc1C)Oc1ccc(F)cc1-3 [Compound 374, (Z)-9-Fluoro-1,2-dihydro-2,2,4-trimethyl-5-(2-methylbenzylidene)-5H-chromeno[3,4-f]quinoline]
[1]
  Ki: 0.5 nM
[2]
  PR Agonist CV-1 Cells Efficacy (%): 231%
  PR Antagonist CV-1 Cells Efficacy (%): na (na = not active (i.e. efficacy or <20 and potency of >10,000))
  IC50: > 10000 nM
[2]; [7]
  EC50: 4 nM
[4]
  steroid receptor selectivity profile: highly selective PR agonists

Reference: patent publication US6448405B1, “Steroid receptor modulator compounds and methods” (Ligand Pharmaceuticals Incorporated, priority 1994, dated 2002)
